Measured values from patent publication US9113629B2, “4-amino-6-(4-substituted-phenyl)-picolinates and 6-amino-2-(4-substituted-phenyl)-pyrimidine-4-carboxylates and their use as herbicides” (DOW AGROSCIENCES LLC, priority 2013, dated 2015).
Like-named read-outs stand apart in the source and are kept apart here.

Tests used:
[1] = system: Key Grass and Sedge Weeds as well as Grass Crops; test: Post-emergent Test II herbicidal activity (Table 6); assay type: in vivo; details: post-emergence, 336 h; for pest or weed control at 70 g/ha: application rate 70 g ai/ha; for pest or weed control at 140 g/ha: application rate 140 g ai/ha
Protocol: (§1) Post-emergent Test II: Seeds or nutlets of the desired test plant species were planted in Sun Gro Metro-Mix® 360 planting mixture, which typically has a pH of 6.0 to 6.8 and an organic matter content of about 30 percent, in plastic pots with a surface area of 64 square centimeters. When required to ensure good germination and healthy plants, a fungicide treatment and/or other chemical or physical treatment was applied. The plants were grown for 7-21 d in a greenhouse with an approximate 15 h photoperiod which was maintained at about 23-29° C. during the day and 22-28° C. during the night. Nutrients and water were added on a regular basis and supplemental lighting was provided with overhead metal halide 1000-Watt lamps as necessary. The plants were employed for testing when they reached the first or second true leaf stage.
(§2) A weighed amount, determined by the highest rate to be tested, of each test compound was placed in a 25 mL glass vial and was dissolved in 4 mL of a 97:3 v/v mixture of acetone and DMSO to obtain concentrated stock solutions. […] The concentrated stock solutions obtained were diluted with 20 mL of an aqueous mixture containing acetone, water, isopropyl alcohol, DMSO. Atplus 411F crop oil concentrate, and Triton® X-155 surfactant in a 48.5:39:10:1.5:1.0:0.02 v/v ratio to obtain spray solutions containing the highest application rates. Additional application rates were obtained by serial dilution of 12 mL of the high rate solution into a solution containing 2 mL of 97:3 v/v mixture of acetone and DMSO and 10 mL of an aqueous mixture containing acetone, water, isopropyl alcohol, DMSO, Atplus 411F crop oil concentrate, and Triton X-155 surfactant in a 48.5:39:10:1.5:1.0:0.02 v/v ratio to obtain ½×, ¼×, ⅛× and 1/16× rates of the high rate. Compound requirements are based upon a 12 mL application volume at a rate of 187 liters per hectare (L/ha). Formulated compounds were applied to the plant material with an overhead Mandel track sprayer equipped with 8002E nozzles calibrated to deliver 187 L/ha over an application area of 0.503 square meters at a spray height of 18 inches (43 cm) above the average plant canopy height. Control plants were sprayed in the same manner with the solvent blank.
(§3) The treated plants and control plants were placed in a greenhouse as described above and watered by subirrigation to prevent wash-off of the test compounds. After 14 d, the condition of the test plants as compared with that of the untreated plants was determined visually and scored on a scale of 0 to 100 percent where 0 corresponds to no injury and 100 corresponds to complete kill.

[2] = system: Key Broadleaf Weed and Crop Species; test: Post-emergent Test II herbicidal activity (Table 5); assay type: in vivo; details: post-emergence, 336 h, 14 days after application
Protocol: as §1, §2, §3

[3] = Triticum aestivum, TRZSS (wheat), read-out: Visual Growth Reduction (%) 14 Days After Application, TRZSS
[4] = CYPES: yellow nutsedge (Cyperus esculentus), read-out: Visual Growth Reduction (%) 14 Days After Application, CYPES
[5] = DIGSA: crabgrass (Digitaria sanguinalis), read-out: Visual Growth Reduction (%) 14 Days After Application, DIGSA
[6] = ORYSA: rice (Oryza sativa), read-out: Visual Growth Reduction (%) 14 Days After Application, ORYSA
[7] = SETFA: giant foxtail (Setaria faberi), read-out: Visual Growth Reduction (%) 14 Days After Application, SETFA
[8] = SORVU: grain sorghum (Sorghum vulgare), read-out: Visual Growth Reduction (%) 14 Days After Application, SORVU
[9] = ZEAMX: maize, corn (Zea mays), read-out: Visual Growth Reduction (%) 14 Days After Application, ZEAMX

| Structure (SMILES) | pest or weed control at 70 g/ha [1, 3] | pest or weed control at 140 g/ha [1, 3] | pest or weed control at 70 g/ha [1, 4] | pest or weed control at 140 g/ha [1, 4] | pest or weed control at 70 g/ha [1, 5] | pest or weed control at 140 g/ha [1, 5] | pest or weed control at 70 g/ha [1, 6] | pest or weed control at 140 g/ha [1, 6] | pest or weed control at 70 g/ha [1, 7] | pest or weed control at 140 g/ha [1, 7] | pest or weed control at 70 g/ha [1, 8] | pest or weed control at 140 g/ha [1, 8] | pest or weed control at 70 g/ha [1, 9] | pest or weed control at 140 g/ha [1, 9] | other results |
| --- | --- | --- | --- | --- | --- | --- | --- | --- | --- | --- | --- | --- | --- | --- | --- |
| COC(=O)c1nc(-c2cccc(F)c2)c(F)c(N)c1Cl [Compound 183] | 0 to 29% | 0 to 29% | 0 to 29% | 0 to 29% | 0 to 29% | 0 to 29% | 0 to 29% | 0 to 29% | 0 to 29% | 0 to 29% | 30 to 44% | 45 to 59% | 0 to 29% | 0 to 29% | pest or weed control at 70 g/ha ([2]; ABUTH: velvetleaf (Abutilon theophrasti), application rate 70 g ai/ha, read-out: Visual Growth Reduction (%) 14 Days After Application, ABUTH): 75 to 84%; pest or weed control at 140 g/ha ([2]; ABUTH: velvetleaf (Abutilon theophrasti), application rate 140 g ai/ha, read-out: Visual Growth Reduction (%) 14 Days After Application, ABUTH): 95 to 100%; pest or weed control at 70 g/ha ([2]; AMARE: redroot pigweed (Amaranthus retroflexus), application rate 70 g ai/ha, read-out: Visual Growth Reduction (%) 14 Days After Application, AMARE): 95 to 100%; pest or weed control at 140 g/ha ([2]; AMARE: redroot pigweed (Amaranthus retroflexus), application rate 140 g ai/ha, read-out: Visual Growth Reduction (%) 14 Days After Application, AMARE): 95 to 100%; pest or weed control at 70 g/ha ([2]; BRSNN: oilseed-rape, canola (Brassica napus), application rate 70 g ai/ha, read-out: Visual Growth Reduction (%) 14 Days After Application, BRSNN): 60 to 74%; pest or weed control at 140 g/ha ([2]; BRSNN: oilseed-rape, canola (Brassica napus), application rate 140 g ai/ha, read-out: Visual Growth Reduction (%) 14 Days After Application, BRSNN): 85 to 94%; pest or weed control at 70 g/ha ([2]; CHEAL: lambsquarters (Chenopodium album), application rate 70 g ai/ha, read-out: Visual Growth Reduction (%) 14 Days After Application, CHEAL): 95 to 100%; pest or weed control at 140 g/ha ([2]; CHEAL: lambsquarters (Chenopodium album), application rate 140 g ai/ha, read-out: Visual Growth Reduction (%) 14 Days After Application, CHEAL): 95 to 100%; pest or weed control at 70 g/ha ([2]; EPHHL: wild poinsettia (Euphorbia heterophylla), application rate 70 g ai/ha, read-out: Visual Growth Reduction (%) 14 Days After Application, EPHHL): 95 to 100%; pest or weed control at 140 g/ha ([2]; EPHHL: wild poinsettia (Euphorbia heterophylla), application rate 140 g ai/ha, read-out: Visual Growth Reduction (%) 14 Days After Application, EPHHL): 95 to 100%; pest or weed control at 70 g/ha ([2]; HELAN: sunflower (Helianthus annuus), application rate 70 g ai/ha, read-out: Visual Growth Reduction (%) 14 Days After Application, HELAN): 85 to 94%; pest or weed control at 140 g/ha ([2]; HELAN: sunflower (Helianthus annuus), application rate 140 g ai/ha, read-out: Visual Growth Reduction (%) 14 Days After Application, HELAN): 85 to 94%; pest or weed control at 70 g/ha ([2]; VIOTR: wild pansy (Viola tricolor), application rate 70 g ai/ha, read-out: Visual Growth Reduction (%) 14 Days After Application, VIOTR): 0 to 29%; pest or weed control at 140 g/ha ([2]; VIOTR: wild pansy (Viola tricolor), application rate 140 g ai/ha, read-out: Visual Growth Reduction (%) 14 Days After Application, VIOTR): 0 to 29% |
| COC(=O)c1nc(-c2cc(F)ccc2F)c(F)c(N)c1Cl [Compound 189] | 0 to 29% | 0 to 29% | 0 to 29% | 0 to 29% | 0 to 29% | 0 to 29% | 0 to 29% | 0 to 29% | 0 to 29% | 0 to 29% | 0 to 29% | 0 to 29% | 0 to 29% | 0 to 29% | pest or weed control at 70 g/ha ([2]; ABUTH: velvetleaf (Abutilon theophrasti), 70 g ai/ha, post-emergent, read-out: Visual Growth Reduction (%) 14 Days After Application ABUTH): 75 to 84%; pest or weed control at 140 g/ha ([2]; ABUTH: velvetleaf (Abutilon theophrasti), 140 g ai/ha, post-emergent, read-out: Visual Growth Reduction (%) 14 Days After Application ABUTH): 75 to 84%; pest or weed control at 70 g/ha ([2]; AMARE: redroot pigweed (Amaranthus retroflexus), 70 g ai/ha, post-emergent, read-out: Visual Growth Reduction (%) 14 Days After Application AMARE): 95 to 100%; pest or weed control at 140 g/ha ([2]; AMARE: redroot pigweed (Amaranthus retroflexus), 140 g ai/ha, post-emergent, read-out: Visual Growth Reduction (%) 14 Days After Application AMARE): 95 to 100%; pest or weed control at 70 g/ha ([2]; BRSNN: oilseed-rape, canola (Brassica napus), 70 g ai/ha, post-emergent, read-out: Visual Growth Reduction (%) 14 Days After Application BRSNN): 45 to 59%; pest or weed control at 140 g/ha ([2]; BRSNN: oilseed-rape, canola (Brassica napus), 140 g ai/ha, post-emergent, read-out: Visual Growth Reduction (%) 14 Days After Application BRSNN): 60 to 74%; pest or weed control at 70 g/ha ([2]; CHEAL: lambsquarters (Chenopodium album), 70 g ai/ha, post-emergent, read-out: Visual Growth Reduction (%) 14 Days After Application CHEAL): 85 to 94%; pest or weed control at 140 g/ha ([2]; CHEAL: lambsquarters (Chenopodium album), 140 g ai/ha, post-emergent, read-out: Visual Growth Reduction (%) 14 Days After Application CHEAL): 85 to 94%; pest or weed control at 70 g/ha ([2]; EPHHL: wild poinsettia (Euphorbia heterophylla), 70 g ai/ha, post-emergent, read-out: Visual Growth Reduction (%) 14 Days After Application EPHHL): 0 to 29%; pest or weed control at 140 g/ha ([2]; EPHHL: wild poinsettia (Euphorbia heterophylla), 140 g ai/ha, post-emergent, read-out: Visual Growth Reduction (%) 14 Days After Application EPHHL): 0 to 29%; pest or weed control at 70 g/ha ([2]; HELAN: sunflower (Helianthus annuus), 70 g ai/ha, post-emergent, read-out: Visual Growth Reduction (%) 14 Days After Application HELAN): 85 to 94%; pest or weed control at 140 g/ha ([2]; HELAN: sunflower (Helianthus annuus), 140 g ai/ha, post-emergent, read-out: Visual Growth Reduction (%) 14 Days After Application HELAN): 85 to 94%; pest or weed control at 140 g/ha ([2]; VIOTR: wild pansy (Viola tricolor), 140 g ai/ha, post-emergent, read-out: Visual Growth Reduction (%) 14 Days After Application VIOTR): 0 to 29% |
